As usually defined, the IC50 is the concentration at which inhibition is half-maximal.

A value given as a limit tells only on which side of the number the result lay.

In patent publication US8158637B2, “Quinazolines useful as modulators of voltage gated ion channels” (Vertex Pharmaceuticals Incorporated, priority 2005, dated 2012) one finds IC50 data, which are given here for 18 molecules.

For this test, the target named is T1, NaV 1.8 channel (Homo sapiens, UniProt Q9Y5Y9).
T1 construct: expressed in transfected cells; host or cells: HEK293
T1 sequence (Q9Y5Y9 whole entry): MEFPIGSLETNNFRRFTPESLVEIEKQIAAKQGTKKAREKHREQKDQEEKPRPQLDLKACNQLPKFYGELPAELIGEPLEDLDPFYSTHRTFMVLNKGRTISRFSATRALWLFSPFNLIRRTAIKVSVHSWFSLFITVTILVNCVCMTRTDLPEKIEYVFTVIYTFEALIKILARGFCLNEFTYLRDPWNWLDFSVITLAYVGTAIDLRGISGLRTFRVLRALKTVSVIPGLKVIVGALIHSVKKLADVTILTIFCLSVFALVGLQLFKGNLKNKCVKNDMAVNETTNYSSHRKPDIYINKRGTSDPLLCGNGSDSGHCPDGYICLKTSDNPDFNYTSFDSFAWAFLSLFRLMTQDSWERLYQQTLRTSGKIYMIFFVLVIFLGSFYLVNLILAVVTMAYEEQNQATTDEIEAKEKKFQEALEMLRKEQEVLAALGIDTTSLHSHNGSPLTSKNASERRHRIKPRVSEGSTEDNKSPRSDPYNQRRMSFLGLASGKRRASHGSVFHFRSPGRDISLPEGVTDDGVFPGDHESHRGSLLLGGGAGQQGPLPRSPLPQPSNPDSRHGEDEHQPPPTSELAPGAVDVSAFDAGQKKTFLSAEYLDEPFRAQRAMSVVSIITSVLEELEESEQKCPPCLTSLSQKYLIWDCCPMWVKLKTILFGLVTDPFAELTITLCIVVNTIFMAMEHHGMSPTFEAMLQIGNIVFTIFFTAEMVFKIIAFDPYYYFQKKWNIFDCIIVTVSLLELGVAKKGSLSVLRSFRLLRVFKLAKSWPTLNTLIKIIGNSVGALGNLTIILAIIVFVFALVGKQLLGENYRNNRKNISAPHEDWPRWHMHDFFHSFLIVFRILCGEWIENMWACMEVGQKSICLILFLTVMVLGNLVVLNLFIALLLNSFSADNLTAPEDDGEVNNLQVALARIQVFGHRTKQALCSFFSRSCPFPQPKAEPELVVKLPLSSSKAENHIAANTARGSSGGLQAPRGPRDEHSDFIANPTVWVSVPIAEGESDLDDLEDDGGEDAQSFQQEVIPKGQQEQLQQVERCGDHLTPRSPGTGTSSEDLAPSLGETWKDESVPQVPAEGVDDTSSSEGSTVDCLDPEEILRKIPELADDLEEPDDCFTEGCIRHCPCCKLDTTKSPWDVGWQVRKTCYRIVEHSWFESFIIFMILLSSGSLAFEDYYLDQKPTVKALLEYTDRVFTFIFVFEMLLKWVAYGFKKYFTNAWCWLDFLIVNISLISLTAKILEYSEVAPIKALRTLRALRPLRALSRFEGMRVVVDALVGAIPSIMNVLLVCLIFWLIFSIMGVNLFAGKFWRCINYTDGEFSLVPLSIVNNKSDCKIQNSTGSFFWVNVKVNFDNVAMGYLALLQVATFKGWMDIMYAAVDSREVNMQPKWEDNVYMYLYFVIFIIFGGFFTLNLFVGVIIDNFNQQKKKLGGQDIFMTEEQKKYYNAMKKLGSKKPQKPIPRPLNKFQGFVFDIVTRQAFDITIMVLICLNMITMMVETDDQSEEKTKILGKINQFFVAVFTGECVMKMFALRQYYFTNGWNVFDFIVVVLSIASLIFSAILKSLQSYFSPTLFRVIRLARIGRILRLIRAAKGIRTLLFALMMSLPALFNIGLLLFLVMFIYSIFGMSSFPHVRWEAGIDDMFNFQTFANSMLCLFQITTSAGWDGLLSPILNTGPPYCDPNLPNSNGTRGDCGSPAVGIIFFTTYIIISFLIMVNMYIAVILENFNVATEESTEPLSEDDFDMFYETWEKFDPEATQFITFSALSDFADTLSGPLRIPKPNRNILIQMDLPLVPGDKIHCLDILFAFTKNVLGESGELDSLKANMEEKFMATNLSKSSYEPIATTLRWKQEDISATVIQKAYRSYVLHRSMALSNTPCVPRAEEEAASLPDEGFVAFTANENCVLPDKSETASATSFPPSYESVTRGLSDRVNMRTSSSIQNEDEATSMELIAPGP
Put plainly: VIPR optical membrane potential assay with electrical stimulation, NaV1.8 inhibition. Format: cell-based. Conditions: activity against NaV 1.8 channel. On the procedure: Compounds of the invention are useful as antagonists of voltage-gated sodium ion channels. Antagonist properties of test compounds were assessed as follows. Cells expressing the NaV of interest were placed into microtiter plates. After an incubation period, the cells were stained with fluorescent dyes sensitive to the transmembrane potential. The test compounds were added to the microtiter plate. The cells were stimulated with either a chemical or electrical means to evoke a NaV dependent membrane potential change from unblocked channels, which was detected and measured with trans-membrane potential-sensitive dyes. Antagonists were detected as a decreased membrane potential response to the stimulus. The optical membrane potential assay utilized voltage-sensitive FRET sensors described by Gonzalez and Tsien (See, Gonzalez, J. E. and R. Y. Tsien (1995) “Voltage sensing by fluorescence resonance energy transfer in single cells” Biophys J 69(4): 1272-80, and Gonzalez, J. E. and R. Y. Tsien (1997) “Improved indicators of cell membrane potential that use fluorescence resonance energy transfer” Chem Biol 4(4): 269-77) in combination with instrumentation for measuring fluorescence changes such as the Voltage/Ion Probe Reader (VIPR®) (See, Gonzalez, J. E., K. Oades, et al. (1999) “Cell-based assays and instrumentation for screening ion-channel targets” Drug Discov Today 4(9): 431-439).
C) VIPR® Optical Membrane Potential Assay Method with Electrical Stimulation
The following was an example of how NaV1.8 inhibition activity was measured using the optical membrane potential method #2. Other subtypes were performed in an analogous mode in a cell line expressing the NaV of interest.
HEK293 cells stably expressing NaV1.8 were plated into 96-well microtiter plates. After an appropriate incubation period, the cells were stained with the voltage sensitive dyes CC2-DMPE/DiSBAC6(3) as follows.
2×CC2-DMPE/DiSBAC6(3)=8 μM CC2-DMPE/8 μM DiSBAC6(3): 10 mM CC2-DMPE and DiSBAC6(3) was vortexed with an equivalent volume of 10% pluronic, followed by vortexing in required amount of Bath Solution #1. Each cell plate required 5 mL of 2×CC2-DMPE/DiSBAC6(3). 50 μL of 2×CC2-DMPE/DiSBAC6(3) was added to wells containing washed cells, resulting in a 4 μM final staining concentration of both dyes. The cells were stained for 30 minutes in the dark at RT.
2×ABSC1=1 mM ABSC1: The required amount of 200 mM ABSC1 was added to a 50 ml conical tube and mixed with 1 μL 10% pluronic for each mL of solution made and vortexed together. Then Bath Solution #1 was added to make up a 2× solution. Finally, the ABSC1 was added.
The 2×ABSC1 solution was used to solvate compound plates. Note that compound plates were made at 2× drug concentration. The stained plate was washed again, leaving residual volume of 50 μL. Added 50 μL/well of the 2×ABSC1. The cells were stained for 30 minutes in the dark at RT.
The electrical stimulation instrument and methods of use are described in ION Channel Assay Methods PCT/US01/21652 and Nat Biotech 2006, 24(4), 439-446, both herein incorporated by reference. The instrument comprises a microtiter plate handler, an optical system for exciting the coumarin dye while simultaneously recording the coumarin and oxonol emissions, a waveform generator, a current- or voltage-controlled amplifier, and a device for inserting electrodes in well. Under integrated computer control, this instrument passed user-programmed electrical stimulus protocols to cells within the wells of the microtiter plate.
Assay Protocol • 1. Inserted or used electrodes into each well that was assayed. • 2. Used the current-controlled amplifier to deliver stimulation wave pulses for 3 s. Two seconds of pre-stimulus recording was performed to obtain the un-stimulated intensities. Five seconds of post-stimulation recording was performed to examine the relaxation to the resting state. […]
Consider `Cc1ccc2c(N3CC[C@H](NC(=O)OCC(C)C)C3)nc(-c3ccccc3O)nc2c1` [Compound 7, (S)-{1-[2-(2-Hydroxy-phenyl)-7-methyl-quinazolin-4-yl]-pyrrolidin-3-yl}-carbamic acid isobutyl ester], for which the IC50 was 1000 to 5000 nM.

As to `CCCOC(=O)N[C@@H]1CCN(c2nc(-c3c(O)cccc3F)nc3cc(C)ccc23)C1` [Compound 13, (R)-Propyl 1-(2-(2-fluoro-6-hydroxyphenyl)-7-methylquinazolin-4-yl)pyrrolidin-3-ylcarbamate], the IC50 was below 1000 nM. For `CCCOC(=O)N[C@@H]1CCN(c2nc(-c3ccccc3O)nc3cc(C)ccc23)C1` [Compound 3, (R)-Propyl 1-(2-(2-hydroxyphenyl)-7-methylquinazolin-4-yl)pyrrolidin-3-ylcarbamate] the value was below 1000 nM; for `Cc1ccc2c(N3CC[C@@H](NC(=O)OCC(C)(C)C)C3)nc(-c3ccccc3O)nc2c1` [Compound 9, (R)-Neopentyl 1-(2-(2-hydroxyphenyl)-7-methylquinazolin-4-yl)pyrrolidin-3-ylcarbamate], below 1000 nM; for `CC(C)(C)COC(=O)N[C@@H]1CCN(c2nc(-c3ccccc3O)nc3ccc(F)cc23)C1` [Compound 4, (R)-Neopentyl 1-(6-fluoro-2-(2-hydroxyphenyl)quinazolin-4-yl)pyrrolidin-3-ylcarbamate], above 5000 nM. For `Cc1ccc2c(N3CC[C@@H](NC(=O)OCC(C)C)C3)nc(-c3ccccc3C(F)F)nc2c1` [Compound 17, (R)-Isobutyl 1-(2-(2-(difluoromethyl)phenyl)-7-methylquinazolin-4-yl)pyrrolidin-3-ylcarbamate] the value was below 1000 nM; for `COCCOC(=O)N[C@@H]1CCN(c2nc(-c3c(O)cccc3F)nc3cc(C)ccc23)C1` [Compound 1, (R)-2-Methoxyethyl 1-(2-(2-fluoro-6-hydroxyphenyl)-7-methylquinazolin-4-yl)pyrrolidin-3-ylcarbamate], 1000 to 5000 nM; for `CCOC(=O)N[C@@H]1CCN(c2nc(-c3ccccc3O)nc3cc(C)ccc23)C1` [Compound 2, (R)-Ethyl 1-(2-(2-hydroxyphenyl)-7-methylquinazolin-4-yl)pyrrolidin-3-ylcarbamate], below 1000 nM. The figure for `Cc1ccc2c(N3CC[C@@H](NC(=O)OCC(C)C)C3)nc(-c3ccccc3O)nc2c1` [Compound 5, (R)-Isobutyl 1-(2-(2-hydroxyphenyl)-7-methylquinazolin-4-yl)pyrrolidin-3-ylcarbamate] is below 1000 nM; for `CC(C)OC(=O)N[C@@H]1CCN(c2nc(-c3ccccc3O)nc3ccc(F)cc23)C1` [Compound 16, (R)-Isopropyl 1-(6-fluoro-2-(2-hydroxyphenyl)quinazolin-4-yl)pyrrolidin-3-ylcarbamate] it is 1000 to 5000 nM; for `Cc1ccc2c(N3CC[C@@H](NC(=O)OC(C)C)C3)nc(-c3ccccc3O)nc2c1` [Compound 12, (R)-Isopropyl 1-(2-(2-hydroxyphenyl)-7-methylquinazolin-4-yl)pyrrolidin-3-ylcarbamate] it is below 1000 nM.

With `Cc1ccc2c(N3CC[C@@H](NC(=O)OCC(C)(C)C)C3)nc(-c3ccccc3C(F)F)nc2c1` [Compound 18, (R)-Neopentyl 1-(2-(2-(difluoromethyl)phenyl)-7-methylquinazolin-4-yl)pyrrolidin-3-ylcarbamate], the IC50 is below 1000 nM.

With `CCOC(=O)N[C@@H]1CCN(c2nc(-c3c(O)cccc3F)nc3cc(C)ccc23)C1` [Compound 10, (R)-Ethyl 1-(2-(2-fluoro-6-hydroxyphenyl)-7-methylquinazolin-4-yl)pyrrolidin-3-ylcarbamate], the IC50 is 1000 to 5000 nM. For `Cc1ccc2c(N3CC[C@@H](NC(=O)OCC(C)C)C3)nc(-c3c(O)cccc3F)nc2c1` [Compound 8, (R)-Isobutyl 1-(2-(2-fluoro-6-hydroxyphenyl)-7-methylquinazolin-4-yl)pyrrolidin-3-ylcarbamate] the value was below 1000 nM; for `COCCOC(=O)N[C@@H]1CCN(c2nc(-c3ccccc3O)nc3cc(C)ccc23)C1` [Compound 14, (R)-2-Methoxyethyl 1-(2-(2-hydroxyphenyl)-7-methylquinazolin-4-yl)pyrrolidin-3-ylcarbamate], 1000 to 5000 nM; for `Cc1ccc2c(N3CC[C@@H](NC(=O)OCC(C)(C)C)C3)nc(-c3c(O)cccc3F)nc2c1` [Compound 11, (R)-Neopentyl 1-(2-(2-fluoro-6-hydroxyphenyl)-7-methylquinazolin-4-yl)pyrrolidin-3-ylcarbamate], below 1000 nM. With `CC(C)COC(=O)N[C@@H]1CCN(c2nc(-c3ccccc3O)nc3ccc(F)cc23)C1` [Compound 15, (R)-Isobutyl 1-(6-fluoro-2-(2-hydroxyphenyl)quinazolin-4-yl)pyrrolidin-3-ylcarbamate], the IC50 is 1000 to 5000 nM.

On to `COCCOC(=O)N[C@H]1CCN(c2nc(-c3ccccc3O)nc3cc(C)ccc23)C1` [Compound 6, (S)-{1-[2-(2-Hydroxy-phenyl)-7-methyl-quinazolin-4-yl]-pyrrolidin-3-yl}-carbamic acid 2-methoxy-ethyl ester], for which the IC50 was above 5000 nM.
